Test [1] has as its system human gastric cancer strain SNU-1. The test is classed as cell-based. The gist of the method: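 SNU-1 gastric cancer cells, 250 cells/well in RPMI-1640 with 10% FBS, glucose, HEPES and sodium pyruvate, plated onto serially diluted compound in DMSO.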
Test [2] deals with GDP-bound NRAS wild-type protein (Homo sapiens, UniProt P01111). The experiment in a line: Binding to NRAS by surface plasmon resonance (SPR), KD and KD ratio to KRAS. The settings on record: ratio of KD for GDP-bound NRAS wild-type protein to KD for KRAS. A digest of the protocol: (§1)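 Biotinylated GDP-bound RAS was captured at about 100–300 RU. Running buffer: HBS pH 7.4, 10 mM MgCl2, 10 µM GDP, 1 mM DTT, 0.01% Tween 20, 4% DMSO.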
For orientation: SPR reads the build-up and loss of mass on a sensor chip optically.

Test [3] concerns human gastric cancer strain GSU. The test is classed as cell-based. A digest of the protocol:
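Cells seeded at 200 per well in RPMI-1640 with 10% FBS onto serially diluted compound (DMSO) in U-bottom plates. Viability read by CellTiter-Glo luminescence.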

The next test concerns the target HRAS wild-type protein (Homo sapiens, UniProt P01112). The experiment in a line: Binding to HRAS by surface plasmon resonance (SPR), KD and KD ratio to KRAS. Conditions: ratio of KD for HRAS wild-type protein to KD for KRAS. The gist of the method:
as §1

Test [4] concerns human bladder cancer strain UM-UC-3. The test is classed as cell-based. A digest of the protocol: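 UM-UC-3 human bladder cancer cells were seeded at 250 cells/well onto serially diluted compound in MEM with 10% FBS. Viability was read as CellTiter-Glo luminescence.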
Test [5] relates to human colorectal cancer strain GP2d. The test is classed as cell-based. The gist of the method:
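Cells seeded at 500 cells/well in DMEM with 10% FBS onto serially diluted compound in DMSO, then cultured 7 days at 37°C, 5% CO2. Viability read by CellTiter-Glo luminescence.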

The subject of test [6] is human ovarian cancer strain OV7. The test is classed as cell-based. The gist of the method: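 OV7 cells, 250 per well, in DMEM/Ham's F-12 with 5% FBS, 0.5 µg/mL hydrocortisone and 10 µg/mL insulin, grown 7 days at 37°C with serially diluted compound. Viability by CellTiter-Glo luminescence.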
Test [7] deals with human pancreatic cancer strain KP4. The test is classed as cell-based. A digest of the protocol: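 KP4 pancreatic cancer cells seeded at 500 cells/well in DMEM/Ham's F-12 with 10% FBS onto serially diluted compound. Viability read by CellTiter-Glo luminescence.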
In test [8] the target is GDP-bound KRAS wild-type protein (Homo sapiens, UniProt P01116). The experiment in a line: Binding to KRAS by surface plasmon resonance (SPR), dissociation constant KD. The settings on record: Single Cycle Kinetics. A digest of the protocol: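 Single-cycle kinetics on GDP-loaded biotin-Avi RAS captured to ~100–300 RU; 75 s ascending injections, 100 µL/min, 30°C. HBS pH 7.4 + 10 mM MgCl2/10 µM GDP/4% DMSO. 1:1 fit, KD.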

In test [9] the test system is human lung cancer strain NCI-H441. The test is classed as cell-based. The gist of the method: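 Step one: dispense the test compound in serial DMSO dilutions. Step three: add the reagent and measure […].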

SMILES strings stand for the structures.

GDP-bound NRAS wild-type protein, sequence (P01111 whole entry): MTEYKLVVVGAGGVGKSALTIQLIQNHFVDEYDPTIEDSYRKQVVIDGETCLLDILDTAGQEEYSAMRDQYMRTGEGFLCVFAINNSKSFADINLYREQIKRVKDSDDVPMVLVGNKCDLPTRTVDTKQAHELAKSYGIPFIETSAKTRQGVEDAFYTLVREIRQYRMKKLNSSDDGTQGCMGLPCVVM
GDP-bound KRAS wild-type protein, sequence (P01116 1-188 isoform P01116-2): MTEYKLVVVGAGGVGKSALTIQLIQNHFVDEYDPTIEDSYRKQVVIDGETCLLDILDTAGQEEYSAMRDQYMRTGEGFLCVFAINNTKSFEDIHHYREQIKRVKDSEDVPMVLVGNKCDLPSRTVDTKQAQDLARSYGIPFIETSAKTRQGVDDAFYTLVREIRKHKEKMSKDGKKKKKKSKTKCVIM
HRAS wild-type protein, sequence (P01112 whole entry): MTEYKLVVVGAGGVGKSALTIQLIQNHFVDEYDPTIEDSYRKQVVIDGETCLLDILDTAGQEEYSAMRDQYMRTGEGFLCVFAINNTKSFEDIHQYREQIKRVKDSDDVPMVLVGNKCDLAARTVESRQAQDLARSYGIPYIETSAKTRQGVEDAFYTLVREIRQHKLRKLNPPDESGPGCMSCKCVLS

Turning to `CCO[C@@H]1C[C@H]2C(=O)OC3(CCC3)C(=O)N(C)[C@@H](C3CCCC3)C(=O)N(C)[C@H](C(=O)N(C)C)CC(=O)N(C)[C@@H]([C@@H](C)OC)C(=O)N[C@@H]([C@@H](C)CC)C(=O)N(C)CC(=O)N(C)[C@H]3C/C=C\CCN(C3=O)[C@@H](Cc3ccc(C)cc3)C(=O)N(C)CC(=O)N[C@@H](CCc3ccc(C(F)(F)F)c(OC)c3)C(=O)N2C1` [PP3394, (2S,8S,12R,14S,20S,23S,27S,30S,36S,38Z)-20-cyclopentyl-12-ethoxy-27-[(1R)-1-methoxyethyl]-8-[2-[3-methoxy-4-(trifluoromethyl)phenyl]ethyl]-N,N,4,19,22,26,32,35-octamethyl-30-[(1S)-1-methylpropyl]-3,6,9,15,18,21,25,28,31,34,42-undecaoxo-2-(p-tolylmethyl)spiro[16-oxa-1,4,7,10,19,22,26,29,32,35-decazatricyclo[34.5.1.0^10,14]dotetracont-38-ene-17,1'-cyclobutane]-23-carboxamide], the IC50 (usually the concentration needed to halve the response being measured) in test [1] stood at 3.9 nM; in test [3], 0.4 nM; in [4], 1.8 nM; in test [5], 2.5 nM; in test [6] it was 4.7 nM; in test [7], 3.9 nM. The same compound displayed an IC50 in test [9] of 4.1 nM. The “NRAS /KRAS” value in [2] was “A (a compound having 10 or more and less than 20 is denoted as A)”. Further, the “HRAS /KRAS” value on HRAS wild-type protein was “A (a compound having 10 or more and less than 20 is denoted as A)”. The Kd – broadly, the constant that tells how readily two partners part at equilibrium – in test [8] came to 0.1 nM.

For `CCC[C@H]1C(=O)N[C@@H]([C@@H](C)CC)C(=O)N(C)CC(=O)N(C)[C@H]2C/C=C\CCN(C2=O)[C@@H](Cc2ccc(C(F)(F)F)cc2)C(=O)N(C)CC(=O)N[C@@H](CCc2ccc(C(F)(F)F)c(Cl)c2)C(=O)N2CC3(CC3)C[C@H]2C(=O)NC2(CCC2)C(=O)N(C)[C@@H](C(CC)CC)C(=O)N(C)[C@H](C(=O)N(C)C)CC(=O)N1C` [PP3414], the IC50 was 19.7 nM in test [1]; 4.3 nM in test [3]; 29 nM in test [4]; 13 nM in [5]; 50.9 nM in test [6]; 29.3 nM in [7]. For the same compound, half-maximal inhibition in [9] (IC50) required 11.9 nM. In addition, in [2], the “NRAS /KRAS” value is “AA (a compound having 20 or more is denoted as AA)”. Besides, the “HRAS /KRAS” value at HRAS wild-type protein was “A (a compound having 10 or more and less than 20 is denoted as A)”. In test [8], this compound had a Kd of 0.37 nM.

As to `CCO[C@@H]1C[C@H]2C(=O)NC3(CCCC3)C(=O)N(C)[C@@H](C3CCCC3)C(=O)N(C)[C@H](C(=O)N(C)C)CC(=O)N(C)[C@@H]([C@@H](C)OC)C(=O)N[C@@H]([C@@H](C)CC)C(=O)N(C)CC(=O)N(C)[C@H]3C/C=C\CCN(C3=O)[C@@H](Cc3ccc(C(F)(F)F)cc3)C(=O)N(C)CC(=O)N[C@@H](CCc3cc(F)c(C(F)(F)F)c(F)c3)C(=O)N2C1` [PP3475, (2S,8S,12R,14S,20S,23S,27S,30S,36S,38Z)-20-cyclopentyl-8-[2-[3,5-difluoro-4-(trifluoromethyl)phenyl]ethyl]-12-ethoxy-27-[(1R)-1-methoxyethyl]-N,N,4,19,22,26,32,35-octamethyl-30-[(1S)-1-methylpropyl]-3,6,9,15,18,21,25,28,31,34,42-undecaoxo-2-[[4-(trifluoromethyl)phenyl]methyl]spiro[1,4,7,10,16,19,22,26,29,32,35-undecazatricyclo[34.5.1.0^10,14]dotetracont-38-ene-17,1'-cyclopentane]-23-carboxamide], the IC50 in [1] worked out at 2.5 nM; in test [3], 0.8 nM; in test [4], 3.9 nM; in test [5], 3.5 nM; in test [6], 13.2 nM; in test [7], 13.1 nM. The compound also returned an IC50 in test [9] of 7.2 nM. In addition, the “NRAS /KRAS” value in test [2] is “A (a compound having 10 or more and less than 20 is denoted as A)”. At HRAS wild-type protein, the “HRAS /KRAS” value is “A (a compound having 10 or more and less than 20 is denoted as A)”. In [8], the Kd came to 0.076 nM.

For `CCO[C@@H]1C[C@H]2C(=O)NC3(CCCC3)C(=O)N(C)[C@@H](C3CCCC3)C(=O)N(C)[C@H](C(=O)N(C)C)CC(=O)N(C)[C@@H](CC(C)C)C(=O)N[C@@H]([C@@H](C)CC)C(=O)N(C)CC(=O)N(C)[C@H]3C/C=C\CCN(C3=O)[C@@H](Cc3ccc(C)cc3)C(=O)N(C)CC(=O)N[C@@H](CCc3cc(F)c(C(F)(F)F)c(F)c3)C(=O)N2C1` [PP3478, (2S,8S,12R,14S,20S,23S,27S,30S,36S,38Z)-20-cyclopentyl-8-[2-[3,5-difluoro-4-(trifluoromethyl)phenyl]ethyl]-12-ethoxy-27-isobutyl-N,N,4,19,22,26,32,35-octamethyl-30-[(1S)-1-methylpropyl]-3,6,9,15,18,21,25,28,31,34,42-undecaoxo-2-(p-tolylmethyl)spiro[1,4,7,10,16,19,22,26,29,32,35-undecazatricyclo[34.5.1.0^10,14]dotetracont-38-ene-17,1'-cyclopentane]-23-carboxamide], the IC50 turned out to be 4 nM in test [1]; 0.9 nM in test [3]; 2.9 nM in test [4]; 5.1 nM in test [5]; 14.4 nM in test [6]; 15.1 nM in test [7]. Further, the IC50 in test [9] turned out to be 5.8 nM. For the same compound, the “NRAS /KRAS” value in [2] is “A (a compound having 10 or more and less than 20 is denoted as A)”. Besides, on HRAS wild-type protein, the “HRAS /KRAS” value is “A (a compound having 10 or more and less than 20 is denoted as A)”. For the same compound, in [8], the Kd is 0.11 nM.

As to `CCO[C@@H]1C[C@H]2C(=O)NC3(CCCC3)C(=O)N(C)[C@@H](C3CCCC3)C(=O)N(C)[C@H](C(=O)N(C)C)CC(=O)N(C)[C@@H]([C@@H](C)OC)C(=O)N[C@@H]([C@@H](C)CC)C(=O)N(C)CC(=O)N(C)[C@H]3C/C=C\CCN(C3=O)[C@@H](Cc3ccc(C)cc3)C(=O)N(C)CC(=O)N[C@@H](CCc3cc(F)c(C(F)(F)F)c(F)c3)C(=O)N2C1` [PP3481, (2S,8S,12R,14S,20S,23S,27S,30S,36S,38Z)-20-cyclopentyl-8-[2-[3,5-difluoro-4-(trifluoromethyl)phenyl]ethyl]-12-ethoxy-27-[(1R)-1-methoxyethyl]-N,N,4,19,22,26,32,35-octamethyl-30-[(1S)-1-methylpropyl]-3,6,9,15,18,21,25,28,31,34,42-undecaoxo-2-(p-tolylmethyl)spiro[1,4,7,10,16,19,22,26,29,32,35-undecazatricyclo[34.5.1.0^10,14]dotetracont-38-ene-17,1'-cyclopentane]-23-carboxamide], the IC50 in test [1] came to 8.2 nM; in test [3] it was 2.1 nM; in test [4], 8.7 nM; in test [5], 9.1 nM; in test [6] it was 24.8 nM; in test [7] it was 25.5 nM. For the same compound, the IC50 in test [9] was determined as 13.6 nM. In addition, the “NRAS /KRAS” value in [2] is “A (a compound having 10 or more and less than 20 is denoted as A)”. On HRAS wild-type protein, the “HRAS /KRAS” value is “A (a compound having 10 or more and less than 20 is denoted as A)”. The compound further gave a Kd in [8] of 0.12 nM.

Take `CCO[C@@H]1C[C@H]2C(=O)N(C)C3(CCC3)C(=O)N(C)[C@@H](C3CCCC3)C(=O)N(C)[C@H](C(=O)N(C)C)CC(=O)N(C)[C@@H](CC(C)C)C(=O)N[C@@H]([C@@H](C)CC)C(=O)N(C)CC(=O)N(C)[C@H]3C/C=C\CCN(C3=O)[C@@H](Cc3ccc(C(F)(F)F)cc3)C(=O)N(C)CC(=O)N[C@@H](CCc3cc(F)c(C(F)(F)F)c(F)c3)C(=O)N2C1` [PP3484, (2S,8S,12R,14S,20S,23S,27S,30S,36S,38Z)-20-cyclopentyl-8-[2-[3,5-difluoro-4-(trifluoromethyl)phenyl]ethyl]-12-ethoxy-27-isobutyl-N,N,4,16,19,22,26,32,35-nonamethyl-30-[(1S)-1-methylpropyl]-3,6,9,15,18,21,25,28,31,34,42-undecaoxo-2-[[4-(trifluoromethyl)phenyl]methyl]spiro[1,4,7,10,16,19,22,26,29,32,35-undecazatricyclo[34.5.1.0^10,14]dotetracont-38-ene-17,1'-cyclobutane]-23-carboxamide]: the IC50 in test [1] stood at 3.1 nM; in test [3] it was 0.6 nM; in [4], 0.9 nM; in [5], 1.8 nM; in test [6], 4.1 nM; in test [7], 1.9 nM. Also, inhibition in test [9] was half-maximal at 2.2 nM (IC50). Besides, the “NRAS /KRAS” value in test [2] was “A (a compound having 10 or more and less than 20 is denoted as A)”. Besides, on HRAS wild-type protein, the “HRAS /KRAS” value is “A (a compound having 10 or more and less than 20 is denoted as A)”. This compound yielded a Kd in test [8] of 0.027 nM.

These data come from patent publication EP4603105A1, “PHARMACEUTICAL COMPOSITION CONTAINING CYCLIC COMPOUND HAVING SELECTIVE KRAS INHIBITORY EFFECT AGAINST HRAS AND NRAS” (CHUGAI SEIYAKU KABUSHIKI KAISHA, priority 2022, dated 2024).
